Laboratory results reported in ChEMBL document CHEMBL3885881, “DrugMatrix”.

Species: Rattus norvegicus
Test: DrugMatrix - Regimen: Daily Repeat
Assay type: toxicity, organism-based, Sprague-Dawley
Parameters: regimen Daily Repeat, gender Male, age 6-8 weeks
Details: in vivo, po, route oral GAVAGE, […]; for ABSOLUTE BASOPHIL / BASOPHIL / NUCLEATED RED BLOOD CELLS / ABSOLUTE EOSINOPHIL / ABSOLUTE LYMPHOCYTE / ABSOLUTE MONOCYTE / ABSOLUTE SEGMENTED NEUTROPHIL / EOSINOPHIL / ERYTHROCYTE COUNT / HEMATOCRIT / LEUKOCYTE COUNT / MEAN CORPUSCULAR HEMOGLOBIN / MEAN CORPUSCULAR HEMOGLOBIN CONCENTRATION / MEAN CORPUSCULAR VOLUME / MONOCYTE / NEUTROPHIL / PLATELET COUNT: tissue Blood; for TOTAL BILIRUBIN / ALANINE AMINOTRANSFERASE / ALBUMIN / ALKALINE PHOSPHATASE / ASPARTATE AMINOTRANSFERASE / BLOOD UREA NITROGEN / CHLORIDE / CHOLESTEROL / CREATINE PHOSPHOKINASE / CREATININE / GLUCOSE / LACTATE DEHYDROGENASE / LIPASE / PHOSPHORUS / POTASSIUM / URIC ACID: tissue Plasma
[1] = 0 mg/kg, 72 h, dose level Control, time 3 day
[2] = 0 mg/kg, 120 h, dose level Control, time 5 day
[3] = 1 mg/kg, 72 h, dose level Low, time 3 day
[4] = 1 mg/kg, 120 h, dose level Low, time 5 day
[5] = 150 mg/kg, 72 h, dose level M1, time 3 day

## C[C@@H]1C[C@H]2[C@@H]3CCC4=CC(=O)C=C[C@]4(C)[C@@]3(F)[C@@H](O)C[C@]2(C)[C@@]1(O)C(=O)CO [DEXAMETHASONE]
[1]
  ABSOLUTE BASOPHIL: 0 CELLS/uL
  BASOPHIL: 0%
  NUCLEATED RED BLOOD CELLS: 0 /100WBC
  TOTAL BILIRUBIN: 0.2 mg/dL
[2]
  ABSOLUTE BASOPHIL: 0 CELLS/uL
  BASOPHIL: 0%
[3]
  ABSOLUTE BASOPHIL: 0 CELLS/uL
  ABSOLUTE EOSINOPHIL: 0 CELLS/uL
  ABSOLUTE LYMPHOCYTE: 386.33 CELLS/uL
  ABSOLUTE MONOCYTE: 54.33 CELLS/uL
  ABSOLUTE SEGMENTED NEUTROPHIL: 12226 CELLS/uL
  BASOPHIL: 0%
  EOSINOPHIL: 0%
  ERYTHROCYTE COUNT: 4.89 x10E6/uL
  HEMATOCRIT: 30.93%
  LEUKOCYTE COUNT: 12.67 x10E3/uL
  MEAN CORPUSCULAR HEMOGLOBIN: 25.53 pg
  MEAN CORPUSCULAR HEMOGLOBIN CONCENTRATION: 40.3 G/DL
  MEAN CORPUSCULAR VOLUME: 63.33 fL
  MONOCYTE: 0.33%
  NEUTROPHIL: 96%
  NUCLEATED RED BLOOD CELLS: 1 /100WBC
  PLATELET COUNT: 1088 x10E3/uL
  ALANINE AMINOTRANSFERASE: 118.33 u/L
  ALBUMIN: 4.1 G/DL
  ALKALINE PHOSPHATASE: 632 u/L
  ASPARTATE AMINOTRANSFERASE: 203 u/L
  BLOOD UREA NITROGEN: 28.33 mg/dL
  CHLORIDE: 95 MEQ/L
  CHOLESTEROL: 76.33 mg/dL
  CREATINE PHOSPHOKINASE: 789 u/L
  CREATININE: 0.16 mg/dL
  GLUCOSE: 441 mg/dL
  LACTATE DEHYDROGENASE: 205.67 u/L
  LIPASE: 45.67 u/L
  PHOSPHORUS: 10.57 mg/dL
  POTASSIUM: 5.98 MEQ/L
  TOTAL BILIRUBIN: 0.33 mg/dL
  URIC ACID: 1.2 mg/dL
[4]
  ABSOLUTE BASOPHIL: 0 CELLS/uL
  ABSOLUTE EOSINOPHIL: 0 CELLS/uL
  ABSOLUTE LYMPHOCYTE: 716 CELLS/uL
  ABSOLUTE MONOCYTE: 233 CELLS/uL
  ABSOLUTE SEGMENTED NEUTROPHIL: 18184.33 CELLS/uL
  BASOPHIL: 0%
  EOSINOPHIL: 0%
  ERYTHROCYTE COUNT: 3.43 x10E6/uL
  HEMATOCRIT: 25.35%
  LEUKOCYTE COUNT: 19.13 x10E3/uL
  MEAN CORPUSCULAR HEMOGLOBIN: 24.9 pg
  MEAN CORPUSCULAR HEMOGLOBIN CONCENTRATION: 40.75 G/DL
  MEAN CORPUSCULAR VOLUME: 59.67 fL
  MONOCYTE: 1.33%
  NEUTROPHIL: 94%
  NUCLEATED RED BLOOD CELLS: 3.33 /100WBC
  PLATELET COUNT: 832.67 x10E3/uL
  ALANINE AMINOTRANSFERASE: 247 u/L
  ALBUMIN: 3.87 G/DL
  ALKALINE PHOSPHATASE: 684.67 u/L
  ASPARTATE AMINOTRANSFERASE: 267.67 u/L
  BLOOD UREA NITROGEN: 20 mg/dL
  CHLORIDE: 95 MEQ/L
  CHOLESTEROL: 149.67 mg/dL
  CREATINE PHOSPHOKINASE: 312.33 u/L
  CREATININE: 0.11 mg/dL
  GLUCOSE: 438.67 mg/dL
  LACTATE DEHYDROGENASE: 287.33 u/L
  LIPASE: 21.67 u/L
  PHOSPHORUS: 9.83 mg/dL
  POTASSIUM: 5.94 MEQ/L
  TOTAL BILIRUBIN: 0.25 mg/dL
  URIC ACID: 1.43 mg/dL
[5]
  ABSOLUTE BASOPHIL: 0 CELLS/uL
  ABSOLUTE EOSINOPHIL: 0 CELLS/uL
  ABSOLUTE LYMPHOCYTE: 851.67 CELLS/uL
  ABSOLUTE MONOCYTE: 0 CELLS/uL
  ABSOLUTE SEGMENTED NEUTROPHIL: 8381.67 CELLS/uL
  BASOPHIL: 0%
  EOSINOPHIL: 0%
  ERYTHROCYTE COUNT: 3.49 x10E6/uL
  HEMATOCRIT: 22.2%
  LEUKOCYTE COUNT: 9.23 x10E3/uL
  MEAN CORPUSCULAR HEMOGLOBIN: 24.87 pg
  MEAN CORPUSCULAR HEMOGLOBIN CONCENTRATION: 39.17 G/DL
  MEAN CORPUSCULAR VOLUME: 63.47 fL
